Test results: patent publication US20190054135A1, “PLANT OR MICROORGANISM-DERIVED CAROTENOID-OXYGEN COPOLYMER COMPOSITIONS, METHODS OF IDENTIFYING, QUANTIFYING AND PRODUCING SAME AND USES THEREOF” (Avivagen Inc., priority 2016, published 2019)

What was measured:
[1] = solubility as noted during extraction and precipitation; assay type: physicochemical; settings: pH 12-13
Description: Purification and concentration of GA was achieved using chloroform. The chloroform extract contained a complex mixture of substances, including carotenoids and carboxylic acids.
Indeed, addition of hexanes to an ethyl acetate extract of carrot powder #1 yielded a brown precipitate. Redissolving the recovered solid in ethyl acetate and precipitating again with hexanes and repeating the procedure gave a brown solid, which, at ca. 0.7 mg/g, was about 1.4 times the estimated OxPVA level, well within the anticipated range for the GA-based estimate (see Isolated Polymer and Polymer/OxPVA columns in Table 2). A similar ratio (1.6) was found for carrot powder #2, for which the yield of copolymer was around half that of carrot powder #1, in line with the respective relative amounts of GA. Confirmation that the isolated solid is largely composed of carotenoid-oxygen copolymer products was provided by comparison of elemental composition, IR, UV-Vis, GPC and GC-MS thermal decomposition data with the corresponding data for the OxBC polymer.

prostate carcinogenesis = settings: rat model of prostate carcinogenesis; cited from earlier work

| solubility in water [1] | SMILES | inhibition of prostate carcinogenesis (prostate carcinogenesis) |
| --- | --- | --- |
| soluble in water | CC(=O)CCCC(C)(C)C(=O)O [GA, geronic acid] | – |
| – | CC(C)=CCC/C(C)=C/C=C/C(C)=C/C=C/C(C)=C/C=C/C=C(C)/C=C/C=C(C)/C=C/C=C(\C)CCC=C(C)C [lycopene] | not lycopene alone inhibited carcinogenesis |
